In brackets after ≈: the same amount, converted by molar mass.

Usually MIC90 stands for the lowest concentration that inhibits either 90% of growth or 90% of the strains tested, depending on the study.

One data set relates to most pathogens. The following applies: cited from earlier work.
A short description of data set [1]: In vitro release of ciprofloxacin from device (HPLC). The data set is classed as physicochemical. As for the experimental part: Ciprofloxacin is normally supplied as the HCl salt. […] A 5% solution of PLA was used as a "glue" to fix a 7-0 nylon suture to the pellet.
Release from these devices was determined at 37° C. by immersion in 1 ml of phosphate buffer (pH 7.4) or a solution composed of 20% serum: 80% phosphate buffer. […] Samples were again assayed by HPLC.

Data set [2] relates to eye. In words: Ocular safety of ciprofloxacin device (ERG, slit lamp, indirect biomicroscopy).
Data set [3] has as its system eye. In words: ERG toxicity of retinoic acid implant sutured onto sclera. The format is in vivo. The following applies: 12 mg disc in silicone on sclera, 3 rabbits, ERG weekly for 5 weeks. As for the experimental part:
A device according to the present invention was prepared. This device was composed of a 3 mm, 12 mg disc of retinoic acid encased in silicone. It resembles FIG. 3 in appearance. The implant was prepared by preparing a thin film of silicone. A 2.5 mm hole was then cut through the film and the retinoic acid pellet fixed directly over the hole using silicone. A loop of Prolene suture was placed over the pellet and fixed onto the surface of the film so that a "gap" of over 1 mm was present between the pellet and the suture all the way around. The entire assembly was then coated again in silicone. These pellets were sutured onto the surface of the sclera in 3 rabbits and the ERGs taken every week for 5 weeks.

With `O=C(O)c1cn(C2CC2)c2cc(N3CCNCC3)c(F)cc2c1=O` [ciprofloxacin], the MIC90 in the data set with most pathogens is 1 µg/mL (≈ 3.02 µM). Further, the linearity of release entry in data set [1] (37° C., 6 days, phosphate buffer pH 7.4 or 20% serum) is recorded as “linear over the duration of the study”. The “effect of serum concentration on release” value in data set [1] (phosphate buffer pH 7.4 vs 20% serum) is reported as “relatively independent of serum concentration”. The linearity of release result in data set [1] (separate study, twenty day period) is listed as “linear over a twenty day period”. The “persistence of drug particles in subconjunctival space” value (5 mg subconjunctival suspension injection) was determined as 7 days. Moreover, under “explanted devices”, the “linearity of release in the vitreous” value was “linear while in the vitreous” and the “mean release rate in the vitreous” value was 2.5 µg/h. Where the note is “from mean release rate”, this compound had a mean device duration of 4 weeks. Besides, the slit lamp examination result in the data set on eye [2] (7 and 14 days) is “mild vitreous cell at 7 days that had resolved by 14 days”. Also, the indirect biomicroscopy entry with eye [2] (implanted eyes) was “devices to be stable with no migration and no retinal detachment”. Besides, the “ERG waveforms or amplitudes” value in the data set on eye [2] (pre- vs post-implantation) was “no significant difference in the pre- and post-implantation waveforms or amplitudes”.
Regarding `CC1=C(/C=C/C(C)=C/C=C/C(C)=C/C(=O)O)C(C)(C)CCC1` [retinoic acid], the “toxicity (ERG)” value with eye [3] is “no evidence of toxicity”.

The values are drawn from US5773019A, “Implantable controlled release device to deliver drugs directly to an internal portion of the body” (The University of Kentucky Research Foundation, priority 1995, dated 1998).
